# Measured values published in patent publication US20210137903A1, “ANTI-ANDROGENS FOR THE TREATMENT OF PROSTRATE CANCER” (priority 2019, published 2021).
# What was measured:
# [1] = Single-dose 14C-apalutamide absolute bioavailability and microtracer study; set-up: species or system human; details: in vivo
# [2] = Dosing accuracy, chemical stability and appearance of apalutamide tablets dispersed in applesauce (UHPLC); format: physicochemical
# Procedure: The tablet core weight was 700 mg. […] Appearance was determined visually. Dosing accuracy and chemical stability (the concentration and impurities) were measured using the following UHPLC Procedure. The reagents used in the UHPLC procedure were demineralized water, ammonium acetate, trifluoroacetic acid and acetonitrile. Mobile Phase A was a 10 mM NH4Ac+01% TFA/Acetonitrile (90/10 v/v) solution prepared as follows. 0.77 g Ammonium acetate (NH4Ac) was transferred into a 1000 mL volumetric flask. […] Mobile Phase B was acetonitrile. Sample solutions were prepared as described in the individual examples which follow hereinafter. [table] For chemical stability (chromatographic characteristics) the identity of impurities were assigned based on comparison of their Relative Retention Times (RRT) to known retention times, or retention times determined using reference solutions. […] The mixture was gently mixed in the container with a spatula for 10 seconds and the time recorded. The hold time of the sample was calculated against the moment the tablets were added to the mixture. After 15 minutes, the mixture was again gently mixed with a spatula for 10 seconds and the time recorded. After an additional 15 minutes, the mixture was again gently mixed with a spatula for until a uniform mixture was formed (at least 10 seconds) and the time recorded. […]
# CRPC = experiment: Phase II clinical trial, apalutamide 240 mg continuous daily dosing in CRPC; format: in vivo, human; details: for patients with 12-week PSA declines of >50% or more from baseline: 240 mg daily
# Text: The primary objective was to assess antitumor activity and PSA kinetics as defined by the Prostate Cancer Clinical Trials Working Group (PCWG2) criteria. […] The median time to PSA progression was not reached for the TN cohort during the preliminary 12-week period, and was 16 weeks in the PA cohort.
# The median time to PSA progression was not reached in this observed time period.
# [3] = Safety in healthy subjects (previous single-dose studies); format: in vivo
# Text: Healthy subjects are commonly selected for PK studies as they allow for assessments in the absence of confounding factors such as comorbid conditions and concomitant medications. In this study, only male subjects were enrolled as the target patient population for clinical use of apalutamide consists of male subjects with CRPC.
# The potential risks to subjects in this study included exposure to study drugs, with a potential for AEs. […] Subjects were monitored for AEs throughout the study, and an expert investigator was chosen to conduct the study. In each treatment period, subjects were confined to the study center until completion of the 72-hour PK assessments on Day 4 and returned to the study center for additional assessments up to Day 8 after intake of the study drug. Subject's safety was monitored at regular intervals throughout the study by physical examination, laboratory safety assessments, ECG and vital signs.
smiles,measurement,setting,value
"CNC(=O)c1ccc(N2C(=S)N(c3cnc(C#N)c(C(F)(F)F)c3)C(=O)C23CCC3)cc1F [apalutamide, 4-[7-(6-cyano-5-trifluoromethylpyridin-3-yl)-8-oxo-6-thioxo-5,7-diazaspiro[3.4]oct-5-yl]-2-fluoro-N-methylbenzamide]",14C-radioactivity excreted via feces (arithmetic mean),[1],24.3%
same,total 14C-radioactivity excreted in urine (arithmetic mean),[1],64.2%
same,total administered 14C-radioactive dose recovered,[1],88.9%
same,time the drug was found to be stable in applesauce,[2],at least 6 hours
same,tolerability,CRPC; 240 mg continuous daily dosing,very well tolerated
same,median time to PSA progression,CRPC; PA cohort,16 weeks
same,median time to PSA progression,"CRPC; TN cohort, preliminary 12-week period",not reached
same,objective response rate (by RECIST),CRPC; TN patients with measurable disease at baseline,63%
same,patients with >50% decline in PSA as compared to baseline,"CRPC; non-metastatic CRPC, 12 weeks",91%
same,patients with >50% decline in PSA,"CRPC; non-metastatic CRPC, 24 weeks",91%
same,patients with >90% decline in PSA,"CRPC; non-metastatic CRPC, 24 weeks",55%
same,median time to PSA progression,"CRPC; non-metastatic CRPC, observed time period",not reached
same,patients with 12-week PSA declines of >50% or more from baseline,CRPC; post-abiraterone (PA) metastatic CRPC cohort,29%
same,patients with 12-week PSA declines of >50% or more from baseline,CRPC; treatment-naive (TN) metastatic CRPC cohort,88%
same,testosterone and luteinizing hormone (LH),"[3]; healthy men, 240 mg",transient increase
same,TSH,"[3]; healthy men, single dose 240 mg",Reversible mild increases
same,tolerability of single doses up to 240 mg,"[3]; human, in vivo",well tolerated
